By pKa is commonly meant the pH at which an ionisable group is half protonated. A high value points to a group that holds its proton tightly. Broadly, the ED50 is the dose that gives a 50% effect, or the effect in half of the subjects. One may read the zone of inhibition as the extent of the growth-free halo in a diffusion test. As a reminder, the MIC is the least concentration at which growth counts as inhibited.

Results on five molecules are retold here after EP0031221B1, “Cyclic peptide nuclei” (ELI LILLY AND COMPANY, priority 1979, dated 1981).

≈ marks a conversion by molar mass, not a printed value. Read-outs that look alike come from different tables or passages of the source. Starred links: 1 amine or outer side, 2 acyl side, 3 side chain; linkers in the order of their positions; H or OH if unused. Positions of bridges follow the written chain, without caps; N, C: chain ends. Non-standard residues stand in square brackets, D forms with d. Residues, ends and D or L forms follow the SMILES beside them. *: point of attachment. Orn(4R-OH,5R-OH) = O=C([C@H](C[C@@H](O)[C@@H](O)N[*:3])N[*:1])[*:2]; hTyr(3S-OH,4S-OH) = N[C@H](C(=O)O)[C@H](O)[C@@H](O)c1ccc(O)cc1; Pro(3S-OH,4S-Me) = C[C@H]1CN[C@H](C(=O)O)[C@H]1O; Benzoyl(4-octyloxy) = CCCCCCCCOc1ccc(C(=O)*)cc1; Gln(3R-OH) = NC(=O)C[C@@H](O)[C@H](N)C(=O)O; Hyp = O=C(O)[C@@H]1C[C@@H](O)CN1; Tridecanoyl = CCCCCCCCCCCCC(=O)*; Myristoyl = CCCCCCCCCCCCCC(=O)*; Lauroyl = CCCCCCCCCCCC(=O)*; 4Abz = Nc1ccc(C(=O)O)cc1 A value given as a limit tells only on which side of the number the result lay.

Data set [1] is described as follows: physchem. Particulars: 66% aqueous dimethylformamide, pH 7.32.
In data set [2] the test system is Candida albicans A-26. The data set is described as follows: Therapeutic activity against systemic C. albicans infection in mice. The format is in vivo. The protocol:
The results of in vivo tests to evaluate the effectiveness of the derivatives against an infection caused by Candida albicans A-26 in mice are given in Table VII. In these tests activity is measured by the ED50 value (the dose in mg/kg required to cure 50% of the test animals). Where an ED50 value was not obtained, activity is indicated by the lowest dose at which a significant antifungal effect is observed. In these tests, groups of male albino mice (specific pathogen free), weighing 18 to 20 grams, are infected intravenously with Candida albicans A-26. The animals are X-irradiated 24 hours prior to infection at about 50 roentgens per minute for 8 minutes (400 total dose) to reduce immune responses to the infecting organism. At 0, 4, and 24 hours post infection each group of mice is given graded doses subcutaneously of the test compound as a suspension in 33% polyethylene glycol(PEG)-water. The day of death for each animal is recorded.

Data set [3] is described as follows: in vivo. Particulars: mouse, po, 416 mg/kg.
Description: (§2) At time intervals, blood samples are taken from the orbital sinus and are assayed for antibiotic activity as follows: A 7-mm disc containing 20 ml of whole blood is placed on agar seeded with Aspergillus montevidensis A35137. After 40 hours incubation at 30°C, zones of inhibition from the blood samples are compared to a standard obtained from the test compound, and the amount of compound in the blood sample is calculated.
The subject of data set [4] is Neurospora crassa 846. Briefly: Agar-plate disc-diffusion test (zone of inhibition). It is filed as cell-based. Conditions: methanol suspension 1 mg/ml, 7-mm disc, 24—48 hours at 25—37°C, * = distinct zone with regrowth of organism around disc. The protocol: (§1) In Table IV activity is measured by the size (diameter in mm) of the observed zone of inhibition of the microorganism produced by the test compound. In Table V activity is measured by the minimal inhibitory concentration (MIC) of the substance (mg/disc) required to inhibit growth of the test organism. Table VI gives the results of the testing in vitro of the p-(n-octyloxy)benzoyl derivative of A-30912A nucleus against five strains of Candida albicans by the agar-dilution method. In Table VI activity is measured by the minimal inhibitory concentration (MIC) of the substance (mg/ml) required to inhibit the test organism.

In data set [5] the test system is Saccharomyces pastorianus X—52. The description is as above. Particulars: methanol suspension 1 mg/ml, 7-mm disc, incubation 24—48 hours at 25—37°C. It is filed as cell-based. The protocol: as §1
The subject of data set [6] is Trichophyton mentagrophytes A—23. The data set is described as above. The format is cell-based. Conditions: read-out: Size of Zone of Inhibition (mm). The protocol:
as §1

Data set [7] is described as follows: Blood levels after oral administration in mice (bioassay vs. Aspergillus montevidensis). Conditions: mouse, 416 mg/kg.
Description: as §2
In data set [8] the test system is Candida albicans. The data set is described as follows: Agar-dilution MIC against five Candida albicans strains. It is filed as cell-based. Particulars: agar-dilution method. The protocol: as §1
Data set [9] deals with Candida albicans. Conditions: characteristics from German Offenlegungschrift 2,628,965 / U.S. Patent 4,173,629; cited from earlier work.
Where [10] appears, read: Candida albicans, A26, light or radiation study, sc, X-irradiated mice infected i.v. with C. albicans A-26, subcutaneous doses at 0, 4 and 24 hours, lowest dose with significant antifungal effect (survival time), read-out: Lowest Active Dose.
[11] abbreviates: Candida albicans, A26, light or radiation study, sc, X-irradiated mice infected i.v. with C. albicans A-26, subcutaneous doses at 0, 4 and 24 hours post infection, suspension in PEG-water, dose curing 50% of animals, read-out: ED50.
[12] abbreviates: Neurospora crassa 846, read-out: Size of Zone of Inhibition (mm).
The mark [13] stands for this setting: Saccharomyces pastorianus X—52, read-out: Size of Zone of Inhibition (mm).

Molecule `C[C@@H](O)[C@@H]1NC(=O)[C@H]([C@H](O)[C@@H](O)c2ccc(O)cc2)NC(=O)[C@@H]2C[C@@H](O)CN2C(=O)[C@H]([C@@H](C)O)NC(=O)[C@@H](N)C[C@@H](O)[C@@H](O)NC(=O)[C@@H]2[C@@H](O)[C@@H](C)CN2C1=O` [A-30912A nucleus] (H-[Orn(4R-OH,5R-OH)]T[Hyp][hTyr(3S-OH,4S-OH)]T[Pro(3S-OH,4S-Me)]; lactam 1-C) gave a pKa in data set [1] of about 7.35.
In the case of `CCCCCCCCCCCCC(=O)N[C@H]1C[C@@H](O)[C@@H](O)NC(=O)[C@@H]2[C@@H](O)[C@@H](C)CN2C(=O)[C@H]([C@@H](C)O)NC(=O)[C@H]([C@H](O)[C@@H](O)c2ccc(O)cc2)NC(=O)[C@@H]2C[C@@H](O)CN2C(=O)[C@H]([C@@H](C)O)NC1=O` [Reference Example 1] (Tridecanoyl-[Orn(4R-OH,5R-OH)]T[Hyp][hTyr(3S-OH,4S-OH)]T[Pro(3S-OH,4S-Me)]; lactam 1-C), the minimal effective dose in data set [2] (setting [10]) was found to be 20 mg/kg. In data set [2] (setting [11]), the ED50 was 34 mg/kg. Also, the concentration at 4 h in [3] is 100 µg/mL. Besides, the zone of inhibition at 1000 µg/mL in data set [4] (setting [12]) stood at 32 mm; in data set [5] (setting [13]), 21 mm; in data set [6] (Trichophyton mentagrophytes A—23, methanol suspension 1 mg/ml, 7-mm disc, 24—48 hours at 25—37°C, * = distinct zone with regrowth of organism around disc), 60 mm.
Molecule `CCCCCCCCCCCC(=O)Nc1ccc(C(=O)N[C@H]2C[C@@H](O)[C@@H](O)NC(=O)[C@@H]3[C@@H](O)[C@@H](C)CN3C(=O)[C@H]([C@@H](C)O)NC(=O)[C@H]([C@H](O)[C@@H](O)c3ccc(O)cc3)NC(=O)[C@@H]3C[C@@H](O)CN3C(=O)[C@H]([C@@H](C)O)NC2=O)cc1` [Reference Example 7, N-(n-dodecanoyl)-p-aminobenzoyl derivative of A-30912A nucleus] ({Lauroyl-4Abz}-[Orn(4R-OH,5R-OH)]T[Hyp][hTyr(3S-OH,4S-OH)]T[Pro(3S-OH,4S-Me)]; lactam 1-C) had an ED50 in data set [2] (Candida albicans, A26, light or radiation study, sc) of 15 mg/kg. The minimal effective dose in data set [2] (Candida albicans, A26, light or radiation study, sc, read-out: Lowest Active Dose (mg/kg), X-irradiated mice infected i.v. with C. albicans A-26, subcutaneous doses at 0, 4 and 24 hours, lowest dose with significant antifungal effect (survival time)) was determined as 10 mg/kg. In [7], this molecule showed a concentration at 4 h of 830 µg/mL. For the same molecule, the zone of inhibition at 1000 µg/mL came to 33 mm in data set [4] (Neurospora crassa, 846, 48 h, read-out: Size of Zone of Inhibition (mm), Neurospora crassa 846); 21 mm in data set [5] (Saccharomyces pastorianus, 48 h, read-out: Size of Zone of Inhibition (mm), Saccharomyces pastorianus X—52); 55 mm in data set [6] (Trichophyton mentagrophytes, 48 h).
With `CCCCCCCCOc1ccc(C(=O)N[C@H]2C[C@@H](O)[C@@H](O)NC(=O)[C@@H]3[C@@H](O)[C@@H](C)CN3C(=O)[C@H]([C@@H](C)O)NC(=O)[C@H]([C@H](O)[C@@H](O)c3ccc(O)cc3)NC(=O)[C@@H]3C[C@@H](O)CN3C(=O)[C@H]([C@@H](C)O)NC2=O)cc1` [Reference Example 13, p-(n-octyloxy)benzoyl derivative of A-30912A nucleus] ({Benzoyl(4-octyloxy)}-[Orn(4R-OH,5R-OH)]T[Hyp][hTyr(3S-OH,4S-OH)]T[Pro(3S-OH,4S-Me)]; lactam 1-C), the minimal effective dose in data set [2] (setting [10]) is 10 mg/kg. The ED50 in [2] (setting [11]) came to 13 mg/kg; in data set [2] (X-irradiated mice infected i.v. with C. albicans A-26, subcutaneous doses at 0, 4 and 24 hours post infection, suspension in PEG-water, dose curing 50% of animals), 22.2 mg/kg. Moreover, the “Lowest Active Dose” value in data set [2] (X-irradiated mice infected i.v. with C. albicans A-26, subcutaneous doses at 0, 4 and 24 hours, lowest dose with significant antifungal effect (survival time)) is given as over 12.5 mg/kg. In addition, the MIC in [8] (Candida albicans strain A26, read-out: MIC) is 0.312 µg/mL (≈ 0.303 µM); in data set [8] (Candida albicans strain SBH 16), 0.312 µg/mL (≈ 0.303 µM); in data set [8] (Candida albicans strain SBH 28), 0.312 µg/mL (≈ 0.303 µM); in [8] (Candida albicans strain SBH 29) it was 0.312 µg/mL (≈ 0.303 µM); in [8] (Candida albicans strain SBH 31), 0.312 µg/mL (≈ 0.303 µM). In [7], this molecule registered a concentration at 4 h of 23000 µg/mL. For the same molecule, the zone of inhibition at 1000 µg/mL in data set [4] (setting [12]) stood at 23 mm; in data set [5] (setting [13]) it was 18 mm.
Take `CCCCCCCCCCCCCC(=O)N[C@H]1C[C@@H](O)[C@@H](O)NC(=O)[C@@H]2[C@@H](O)[C@@H](C)CN2C(=O)[C@H]([C@H](O)CC(N)=O)NC(=O)[C@H]([C@H](O)[C@@H](O)c2ccc(O)cc2)NC(=O)[C@@H]2C[C@@H](O)CN2C(=O)[C@H]([C@@H](C)O)NC1=O` [S 31794/F-1] (Myristoyl-[Orn(4R-OH,5R-OH)]T[Hyp][hTyr(3S-OH,4S-OH)][Gln(3R-OH)][Pro(3S-OH,4S-Me)]; lactam 1-C): the antifungal activity entry in data set [9] is “has antifungal activity, especially against Candida albicans”.
